One test addresses T1, Angiotensin II receptor (Rattus norvegicus, UniProt P29089+P25095+P35351).
T1 sequence (P29089 whole entry): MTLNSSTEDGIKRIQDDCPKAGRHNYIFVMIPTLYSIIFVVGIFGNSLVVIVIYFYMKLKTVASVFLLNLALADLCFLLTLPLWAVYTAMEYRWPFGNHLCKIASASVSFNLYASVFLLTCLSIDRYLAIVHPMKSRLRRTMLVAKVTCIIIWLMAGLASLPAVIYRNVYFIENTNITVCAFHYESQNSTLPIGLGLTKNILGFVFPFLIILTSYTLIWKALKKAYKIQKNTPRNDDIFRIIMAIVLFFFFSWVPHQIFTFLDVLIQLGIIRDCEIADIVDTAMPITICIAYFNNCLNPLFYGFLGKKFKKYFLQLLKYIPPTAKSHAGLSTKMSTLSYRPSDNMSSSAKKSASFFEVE
T1 sequence (P25095 whole entry): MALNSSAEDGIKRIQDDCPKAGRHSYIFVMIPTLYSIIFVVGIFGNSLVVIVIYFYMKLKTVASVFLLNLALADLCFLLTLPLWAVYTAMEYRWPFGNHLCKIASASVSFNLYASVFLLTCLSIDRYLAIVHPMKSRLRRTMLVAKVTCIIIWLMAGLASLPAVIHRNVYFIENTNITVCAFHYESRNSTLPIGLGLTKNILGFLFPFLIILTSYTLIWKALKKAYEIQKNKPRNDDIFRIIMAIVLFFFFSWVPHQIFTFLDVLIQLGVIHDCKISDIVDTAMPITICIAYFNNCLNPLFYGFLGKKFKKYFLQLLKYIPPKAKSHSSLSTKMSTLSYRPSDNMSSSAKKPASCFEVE
T1 sequence (P35351 whole entry): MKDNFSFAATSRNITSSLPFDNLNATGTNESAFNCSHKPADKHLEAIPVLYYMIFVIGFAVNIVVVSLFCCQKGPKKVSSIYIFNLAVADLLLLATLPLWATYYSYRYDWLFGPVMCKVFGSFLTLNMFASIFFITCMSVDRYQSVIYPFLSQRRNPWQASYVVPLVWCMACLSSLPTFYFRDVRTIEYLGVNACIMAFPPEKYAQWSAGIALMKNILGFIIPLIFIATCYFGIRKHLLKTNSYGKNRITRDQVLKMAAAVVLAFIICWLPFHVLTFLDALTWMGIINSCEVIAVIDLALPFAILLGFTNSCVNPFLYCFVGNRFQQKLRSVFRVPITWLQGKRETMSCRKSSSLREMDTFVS
Put plainly: Concentration required for 50% inhibition of binding against Angiotensin II receptor in the rat adrenal cortex tissue. Format: tissue-based.

Test [1] has as its target Type-1 angiotensin II receptor (Oryctolagus cuniculus) (UniProt P34976). The test can be described thus: Concentration required for inhibition […] against Angiotensin II receptor in rabbit aortic rings.
Test [2] concerns the target T2, Type-1 angiotensin II receptor (Bos taurus, UniProt P25104).
T2 sequence (P25104 whole entry): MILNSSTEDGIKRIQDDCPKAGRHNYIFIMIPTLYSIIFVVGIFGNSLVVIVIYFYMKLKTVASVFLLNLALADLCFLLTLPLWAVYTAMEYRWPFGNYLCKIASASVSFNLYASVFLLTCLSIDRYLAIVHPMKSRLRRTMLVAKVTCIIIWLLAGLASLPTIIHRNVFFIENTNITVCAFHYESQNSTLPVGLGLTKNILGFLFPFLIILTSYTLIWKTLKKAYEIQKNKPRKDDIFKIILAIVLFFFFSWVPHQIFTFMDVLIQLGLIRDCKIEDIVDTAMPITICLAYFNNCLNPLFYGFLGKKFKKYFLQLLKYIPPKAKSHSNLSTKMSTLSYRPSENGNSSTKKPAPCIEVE
The test can be described thus: Concentration required for 50% inhibition of binding against Angiotensin II receptor in the bovine adrenal cortex tissue. In kind it is tissue-based.

Chain of Type-1 angiotensin II receptor (Oryctolagus cuniculus) (P34976 whole entry, looked up): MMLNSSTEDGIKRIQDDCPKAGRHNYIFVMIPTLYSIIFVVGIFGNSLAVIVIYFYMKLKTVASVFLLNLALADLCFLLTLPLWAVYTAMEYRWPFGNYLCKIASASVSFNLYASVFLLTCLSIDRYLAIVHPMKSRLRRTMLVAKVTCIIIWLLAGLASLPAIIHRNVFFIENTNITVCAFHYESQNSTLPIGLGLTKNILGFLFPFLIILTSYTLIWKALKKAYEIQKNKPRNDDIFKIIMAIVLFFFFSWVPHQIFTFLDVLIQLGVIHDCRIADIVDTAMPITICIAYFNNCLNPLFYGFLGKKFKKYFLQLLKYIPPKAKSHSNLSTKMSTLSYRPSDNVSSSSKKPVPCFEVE

Turning to `CCCCc1nc2ccc(C)cc2c(=O)n1Cc1ccc(-c2ccccc2-c2nn[nH]n2)cc1`, the IC50 at Angiotensin II receptor worked out at 10 nM.

With `CCCCc1nc2ccc(COC)cc2c(=O)n1Cc1ccc(-c2ccccc2-c2nn[nH]n2)cc1`, the IC50 on Angiotensin II receptor stood at 18 nM.

On Angiotensin II receptor, `CCCCc1nc2ccc(C(OC)c3ccccc3)cc2c(=O)n1Cc1ccc(-c2ccccc2-c2nn[nH]n2)cc1` (centres undefined) returned an IC50 of 9 nM.

In the case of `CCCCc1nc2ccc(C(C)OC)cc2c(=O)n1Cc1ccc(-c2ccccc2-c2nn[nH]n2)cc1` (centres undefined), the IC50 at Angiotensin II receptor is 7 nM.

`CCCCc1nc2ccc(C(C)N)cc2c(=O)n1Cc1ccc(-c2ccccc2-c2nn[nH]n2)cc1` (centres undefined) came in with an IC50 on Angiotensin II receptor of 14 nM.

Regarding `CCCCc1nc2ccc(C(C)(C)OC)cc2c(=O)n1Cc1ccc(-c2ccccc2-c2nn[nH]n2)cc1` [CL-329167], in test [1], the pA2 was found to be 8.01. In addition, the IC50 on Angiotensin II receptor was determined as 6 nM.

For the compound `CCCCc1nc2ccc(COc3ccccn3)cc2c(=O)n1Cc1ccc(-c2ccccc2-c2nn[nH]n2)cc1`, in test [2], the IC50 came to 130 nM.

`CCCCc1nc(Cl)c(CO)n1Cc1ccc(-c2ccccc2-c2nn[nH]n2)cc1` [LOSARTAN] gave an IC50 in test [2] of 330 nM.

With `CCCCc1nc2ccc(C(CC)OC)cc2c(=O)n1Cc1ccc(-c2ccccc2-c2nn[nH]n2)cc1` (centres undefined), on Angiotensin II receptor, the IC50 amounted to 5 nM.

At Angiotensin II receptor, `CCCCc1nc2ccc(C(O)CO)cc2c(=O)n1Cc1ccc(-c2ccccc2-c2nn[nH]n2)cc1` (centres undefined) yielded an IC50 of 1000 nM.

Compound `CCCCc1nc2ccc(CO)cc2c(=O)n1Cc1ccc(-c2ccccc2-c2nn[nH]n2)cc1` showed an IC50 at Angiotensin II receptor of 10 nM.

As for `CCCCc1nc2ccc(C(O)C(C)(C)C)cc2c(=O)n1Cc1ccc(-c2ccccc2-c2nn[nH]n2)cc1` (centres undefined), the concentration for half-maximal inhibition (IC50) at Angiotensin II receptor was 1000 nM.

At Angiotensin II receptor, `CCCCc1nc2ccc(C(O)CC)cc2c(=O)n1Cc1ccc(-c2ccccc2-c2nn[nH]n2)cc1` (centres undefined) returned an IC50 of 12 nM.

`CCCCc1nc2ccc(C(C)NC(C)=O)cc2c(=O)n1Cc1ccc(-c2ccccc2-c2nn[nH]n2)cc1` (centres undefined) had an IC50 at Angiotensin II receptor of 6 nM.

In test [2], `CCCCc1nc2ccc(COc3ccccc3)cc2c(=O)n1Cc1ccc(-c2ccccc2-c2nnn[nH]2)cc1` showed an IC50 of 130 nM.

`CCCCc1nc2ccc(CN)cc2c(=O)n1Cc1ccc(-c2ccccc2-c2nn[nH]n2)cc1` displayed an IC50 at Angiotensin II receptor of 15 nM.

In turn, `CCCCc1nc2ccc(C(C)O)cc2c(=O)n1Cc1ccc(-c2ccccc2-c2nn[nH]n2)cc1` (centres undefined) showed an IC50 on Angiotensin II receptor of 9 nM.

Take `CCCCc1nc2ccc(C(C)(C)O)cc2c(=O)n1Cc1ccc(-c2ccccc2-c2nn[nH]n2)cc1`: the IC50 on Angiotensin II receptor amounted to 9 nM.

Source of the values: ChEMBL document CHEMBL1127774, “2,3,6-Substituted quinazolinones as angiotensin II receptor antagonists” (Bioorg Med Chem Lett, 1994).
